The source of these data is publication PMC2954893, “MHC Class I Bound to an Immunodominant Theileria parva Epitope Demonstrates Unconventional Presentation to T Cell Receptors” (PLoS Pathogens, 2010).

Experiment [1] relates to N*01301. Nature of the experiment: RMA-S MHC stabilization assay (peptide binding, pBL50). The conditions noted are these: RMA-S cells transfected with N*01301; peptides 0.1 nM to 1 mM; surface N*01301 detected with mAb IL-A88 by flow; reference peptide TIMPKDIQL
Further details: species or system cattle. As for the experimental part:
A 9mer self-peptide (TIMPKDIQL) shown to have a high binding affinity to N*01301 was used throughout as a positive control in flow-based MHC stabilization assays (see Materials and Methods for details). In order to systematically explore the relative contribution to binding affinity made by amino acids at each position, a sequential alanine-scan of the self-peptide was made (Fig. 1A). Dose/FI curves were created for each peptide (using peptides at concentrations between 0.1 nM and 1 mM) and presented as semi-logarithmic plots as in previous studies ([25], supporting information (SI) Fig. S1). The high binders have low half-maximal binding level (BL50) values (high pBL50) and the low binders have high BL50 values (low pBL50). […]
RMA-S is a mouse lymphoma cell line with a deficiency in MHC class I antigen processing which has been used extensively to study binding of peptides to MHC class I [37]. […] Results are expressed as fluorescence index (FI) values. These were calculated as the test mean fluorescence intensity (MFI) minus the no-peptide isotype control MFI divided by the no-peptide N*01301-stained control MFI minus the no-peptide isotype control MFI. The half-maximal binding level (BL50), which is the peptide concentration yielding the half-maximal FI of the reference peptide in each assay, was calculated and presented as pBL50 (–logBL50). […]

The subject of experiment [2] is Tp1_214–224-specific CD8+ T cell clones. Kind of experiment: 4-hour 111Indium release cytotoxicity assay with peptide-pulsed target cells. The conditions noted are these: 22 CD8+ T cell clones; example in Fig S6. In kind it is cell-based, cattle. The text has this:
Twenty-two Tp1_214–224-specific CD8^+ T cell clones, derived from 2 T. parva-immune animals (641 and 633), were examined for their ability to recognize a series of Ala-substituted versions of Tp1_214–224 (as detailed in Fig 1), using a cytotoxicity assay. All clones gave near maximal levels of killing of cells pulsed with the native peptide (ranging from 21% to 100% for different clones) down to a concentration of 10 pg/ml (example shown in Fig S6). The results obtained with the Ala-substituted peptides tested at 1 ng/ml (i.e. well above the minimal concentration required to obtain maximal killing), are summarized in Fig 5. The most striking finding was the abolition (or near abolition) of recognition by all T cell clones of 2 or more of the peptides substituted at positions 6–9. Based on major effects on recognition of peptides substituted at positions 6, 7 and 8, the 22 clones fell into 4 groups each with broadly similar specificity. Nine clones were profoundly influenced by residues 6 and 8, seven clones by residues 7 and 8, four clones by residue 7 and two clones by residue 8. […] Substitutions at positions 3 and 4 also had substantial effects on recognition by some clones.
Figure 5 Effects of single alanine substitutions in the Tp1_214–224 epitope on recognition by specific CD8^+ T cell clones. […]

Experiment [3] concerns responding T cells. To be noted: T. parva-immune A18-homozygous animals; cited from earlier work. The text has this:
Several CD8^+ T cell epitopes in T. parva have been identified recently, [17], [18]. […] This allele is expressed alone on the haplotype designated A18, which is common in the British Friesian breed. Although this is not the only single gene class I MHC haplotype in cattle, it remains an unu ...

With TIMPKDIQL, the “binding to N*01301 (pBL50 class)” value in experiment [1] was “high (for high binding >5 (BL50 <10^−5))”.

Take VGYPKVKEEML [Tp1_214–224]: the “peptide concentration down to which all clones gave near maximal killing” value in experiment [2] is 10 pg/mL. Also, the “share of responding T cells specific for the peptide” value in experiment [3] is “over 75%”.
